Reference: US20140357487A1, “PLANTS HAVING INCREASED TOLERANCE TO HERBICIDES” (BASF SE, priority 2011, published 2014)

Key:
Assay type in all cases: biochemical
Hordeum HPPD (SEQ ID: 2) = biological target: T1, Hordeum HPPD (SEQ ID: 2) (Hordeum vulgare, UniProt O48604, A164G/R146V/R147D/R148G); assay: HPPD activity assay, Hordeum wild-type HPPD; settings: Hordeum HPPD Wildtype; normalized on Hordeum wild-type HPPD
T1 construct: His (N); made in house; host or cells: E. coli BL21 (DE3)
Method: (§1) HPPD produces homogentisic acid and CO2 from 4-hydroxyphenylpyruvate (4-HPP) and O2. The activity assay for HPPD is based on the analysis of homogentisic acid by reversed phase HPLC.
(§2) The assay mixture can contain 150 mM potassium phosphate buffer pH 7.0, 50 mM L-ascorbic acid, 1 μM FeSO4 and 7 μg of purified enzyme in a total volume of 1 ml.
(§3) Inhibitors are dissolved in DMSO (dimethylsulfoxide) to a concentration of 20 mM or 0.5 mM, respectively. From this stock solution serial five-fold dilutions are prepared in DMSO, which are used in the assay. The respective inhibitor solution accounts for 1% of the assay volume. […] After a preincubation of 30 min the reaction is started by adding 4-HPP to a final concentration of 0.1 mM. The reaction is allowed to proceed for 120 min at room temperature. The reaction is stopped by addition of 100 μl of 4.5 M phosphoric acid.
(§4) Activities are normalized by setting the uninhibited enzyme activity to 100%. IC50 values are calculated using non-linear regression.
(§5) The assay mixture can contain 150 mM potassium phosphate buffer pH 7.0, 50 mM L-ascorbic acid, 100 μM Catalase (Sigma-Aldrich), 1 μM FeSO4 and 0.2 units of purified HPPD enzyme in a total volume of 505 μl. 1 unit is defined as the amount of enzyme that is required to produce 1 nmol of HGA per minute at 20° C.
(§6) Inhibitors are dissolved in DMSO (dimethylsulfoxide) to a concentration of 0.5 mM. From this stock solution serial five-fold dilutions are prepared in DMSO, which are used in the assay. The respective inhibitor solution accounts for 1% of the assay volume. […] Activities are normalized by setting the uninhibited enzyme activity to 100%. IC50 values are calculated using non-linear regression.
(§7) Using methods which are described in the above examples or well known in the art, purified, recombinant wildtype HPPD enzymes are characterized with respect to their kinetic properties and sensitivity towards HPPD inhibiting herbicides. Apparent michaelis constants (Km) and maximal reaction velocities (Vmax) are calculated by non-linear regression with the software GraphPad Prism 5 (GraphPad Software, La Jolla, USA) using a substrate inhibition model.
(§8) Field performance of the HPPD enzyme, which is used as a herbicide tolerance trait, may depend not only on its lack of sensitivity towards HPPD inhibiting herbicides but also on its activity. To assess the potential performance of a herbicide tolerance trait a tolerance index (TI) is calculated using the following formula: […]

[1] = biological target: T2, Hordeum HPPD variant L320H, P321A (Hordeum vulgare, UniProt O48604, L320H/P321A); assay: HPPD activity assay, Hordeum HPPD mutant L320H, P321A; settings: normalized on Hordeum wild-type HPPD
T2 construct: His (N); made in house; host or cells: E. coli BL21 (DE3)
Method: as §1, §2, §3, §4, §5, §6
(§9) Purified, mutant HPPD enzymes are obtained by the methods described above. Dose response and kinetic measurements are carried out using the described HPPD activity assay. Apparent michaelis constants (Km) and maximal reaction velocities (Vmax) are calculated by non-linear regression with the software GraphPad Prism 5 (GraphPad Software, La Jolla, USA) using a substrate inhibition model.
as §8, with “of the optimized HPPD enzyme,” for “of the HPPD enzyme,”, “herbicide tolerance trait may depend” for “herbicide tolerance trait, may depend”
(§10) Easy comparison and ranking of each trait is enabled by normalizing tolerance indexes on Arabidopsis or Hordeum wild-type HPPD.

[2] = biological target: T3, Hordeum HPPD variant L334E (Hordeum vulgare, UniProt O48604, A164G/L334E/R146V/R147D/R148G); assay: HPPD activity assay, Hordeum HPPD mutant L334E; settings: normalized on Hordeum wild-type HPPD
T3 construct: His (N); made in house; host or cells: E. coli BL21 (DE3)
Method: as §1, §2, §3, §4, §5, §6, §9
as §8, with “of the optimized HPPD enzyme,” for “of the HPPD enzyme,”, “herbicide tolerance trait may depend” for “herbicide tolerance trait, may depend”
as §10

[3] = biological target: T4, Hordeum HPPD variant L320Q (Hordeum vulgare, UniProt O48604, A164G/L320Q/R146V/R147D/R148G); assay: HPPD activity assay, Hordeum HPPD mutant L320Q; settings: normalized on Hordeum wild-type HPPD
T4 construct: His (N); made in house; host or cells: E. coli BL21 (DE3)
Method: as §1, §2, §3, §4, §5, §6, §9
as §8, with “of the optimized HPPD enzyme,” for “of the HPPD enzyme,”, “herbicide tolerance trait may depend” for “herbicide tolerance trait, may depend”
as §10

[4] = biological target: T5, Hordeum HPPD variant L353M, P321R, V212I (Hordeum vulgare, UniProt O48604, L353M/P321R/V212I); assay: HPPD activity assay, Hordeum HPPD mutant L353M, P321R, V212I; settings: normalized on Hordeum wild-type HPPD
T5 construct: His (N); made in house; host or cells: E. coli BL21 (DE3)
Method: as §1, §2, §3, §4, §5, §6, §9
as §8, with “of the optimized HPPD enzyme,” for “of the HPPD enzyme,”, “herbicide tolerance trait may depend” for “herbicide tolerance trait, may depend”
as §10

[5] = biological target: T6, Hordeum HPPD variant L353M, P321R, V212I, L334E (Hordeum vulgare, UniProt O48604, L334E/L353M/P321R/V212I); assay: HPPD activity assay, Hordeum HPPD mutant L353M, P321R, V212I, L334E; settings: normalized on Hordeum wild-type HPPD
T6 construct: His (N); made in house; host or cells: E. coli BL21 (DE3)
Method: as §1, §2, §3, §4, §5, §6, §9
as §8, with “of the optimized HPPD enzyme,” for “of the HPPD enzyme,”, “herbicide tolerance trait may depend” for “herbicide tolerance trait, may depend”
as §10

[6] = biological target: T7, Hordeum HPPD variant G407C (Hordeum vulgare, UniProt O48604, A164G/G407C/R146V/R147D/R148G); assay: HPPD activity assay, Hordeum HPPD mutant G407C; settings: normalized on Hordeum wild-type HPPD
T7 construct: His (N); made in house; host or cells: E. coli BL21 (DE3)
Method: as §1, §2, §3, §4, §5, §6, §9
as §8, with “of the optimized HPPD enzyme,” for “of the HPPD enzyme,”, “herbicide tolerance trait may depend” for “herbicide tolerance trait, may depend”
as §10

[7] = biological target: T8, Arabidopsis HPPD variant M335H, P336A, E363Q (Arabidopsis thaliana, UniProt P93836, E363Q/M335H/P336A); assay: HPPD activity assay, Arabidopsis HPPD mutant M335H, P336A, E363Q; settings: normalized on Arabidopsis wild-type HPPD
T8 construct: PCR-based site directed mutagenesis of pEXP5-NT/TOPO®-AtHPPD is done; His6 (N); made in house; host or cells: E. coli BL21 (DE3)
Method: as §1, §2, §3, §4, §5
Inhibitors are dissolved in DMSO (dimethylsulfoxide) to a concentration of 0.5 mM. […] IC50 values are calculated using non-linear regression. […]
Purified, mutant HPPD enzymes are obtained by the methods described above. […] Apparent michaelis constants (Km) and maximal reaction velocities (Vmax) are calculated by non-linear regression with the software GraphPad Prism 5 (GraphPad Software, La Jolla, USA) using a substrate inhibition model.
as §8, with “of the optimized HPPD enzyme,” for “of the HPPD enzyme,”, “herbicide tolerance trait may depend” for “herbicide tolerance trait, may depend”

[8] = biological target: T9, Hordeum HPPD variant L353M, P321R, L320N (Hordeum vulgare, UniProt O48604, L320N/L353M/P321R); assay: HPPD activity assay, Hordeum HPPD mutant L353M, P321R, L320N; settings: normalized on Hordeum wild-type HPPD
T9 construct: His (N); made in house; host or cells: E. coli BL21 (DE3)
Method: as §1, §2, §3, §4, §5, §6, §9
as §8, with “of the optimized HPPD enzyme,” for “of the HPPD enzyme,”, “herbicide tolerance trait may depend” for “herbicide tolerance trait, may depend”
as §10

[9] = biological target: T10, Arabidopsis HPPD (SEQ ID: 53) (Arabidopsis thaliana, UniProt P93836); assay: HPPD activity assay, Arabidopsis wild-type HPPD; set-up: key to Normalized tolerance index TI: tolerance index relative to Arabidopsis wild-type HPPD (= 1); settings: Arabidopsis HPPD Wildtype; normalized on Arabidopsis wild-type HPPD; Table 15
T10 construct: His6 (N); made in house; host or cells: E. coli BL21 (DE3)
T10 sequence (P93836 1-445): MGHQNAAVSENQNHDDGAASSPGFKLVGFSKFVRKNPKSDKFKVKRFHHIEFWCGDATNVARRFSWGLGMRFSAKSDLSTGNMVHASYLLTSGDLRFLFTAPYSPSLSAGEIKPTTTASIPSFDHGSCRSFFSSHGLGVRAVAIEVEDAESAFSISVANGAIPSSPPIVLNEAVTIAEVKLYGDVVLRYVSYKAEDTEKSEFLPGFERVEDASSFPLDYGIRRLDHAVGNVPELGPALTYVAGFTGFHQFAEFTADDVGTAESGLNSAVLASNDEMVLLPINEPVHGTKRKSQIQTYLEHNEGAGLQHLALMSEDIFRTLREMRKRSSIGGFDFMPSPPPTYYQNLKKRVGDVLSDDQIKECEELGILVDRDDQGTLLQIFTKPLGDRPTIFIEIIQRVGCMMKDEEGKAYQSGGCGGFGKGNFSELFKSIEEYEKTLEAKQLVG
Method: as §1, §2, §3, §4, §5, §6, §7, §8
Easy comparison and ranking of each trait is enabled by normalizing tolerance indexes on Arabidopsis wild-type HPPD.

[10] = biological target: T11, Hordeum HPPD variant V212L (Hordeum vulgare, UniProt O48604, A164G/R146V/R147D/R148G/V212L); assay: HPPD activity assay, Hordeum HPPD mutant V212L; settings: normalized on Hordeum wild-type HPPD
T11 construct: His (N); made in house; host or cells: E. coli BL21 (DE3)
Method: as §1, §2, §3, §4, §5, §6, §9
as §8, with “of the optimized HPPD enzyme,” for “of the HPPD enzyme,”, “herbicide tolerance trait may depend” for “herbicide tolerance trait, may depend”
as §10

[11] = biological target: T12, Hordeum HPPD variant L320N (Hordeum vulgare, UniProt O48604, A164G/L320N/R146V/R147D/R148G); assay: HPPD activity assay, Hordeum HPPD mutant L320N; settings: normalized on Hordeum wild-type HPPD
T12 construct: His (N); made in house; host or cells: E. coli BL21 (DE3)
Method: as §1, §2, §3, §4, §5, §6, §9
as §8, with “of the optimized HPPD enzyme,” for “of the HPPD enzyme,”, “herbicide tolerance trait may depend” for “herbicide tolerance trait, may depend”
as §10

T4 sequence (O48604 whole entry R146V/R147D/R148G/A164G/L320Q): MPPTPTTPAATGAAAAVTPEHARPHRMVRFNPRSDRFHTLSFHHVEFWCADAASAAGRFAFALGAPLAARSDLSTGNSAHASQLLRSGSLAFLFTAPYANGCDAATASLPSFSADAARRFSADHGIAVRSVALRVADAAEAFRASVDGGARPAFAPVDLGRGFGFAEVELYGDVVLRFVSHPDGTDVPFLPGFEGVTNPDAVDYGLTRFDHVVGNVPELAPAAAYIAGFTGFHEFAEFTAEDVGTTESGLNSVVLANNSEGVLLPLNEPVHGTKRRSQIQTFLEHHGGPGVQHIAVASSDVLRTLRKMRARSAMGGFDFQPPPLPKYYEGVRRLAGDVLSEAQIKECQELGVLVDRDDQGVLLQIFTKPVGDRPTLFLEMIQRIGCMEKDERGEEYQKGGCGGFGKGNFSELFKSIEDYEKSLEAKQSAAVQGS
T11 sequence (O48604 whole entry R146V/R147D/R148G/A164G/V212L): as the sequence (O48604 whole entry R146V/R147D/R148G/A164G/L320Q) above, with V212L, Q320L counted along it
T2 sequence (O48604 whole entry R146V/R147D/R148G/A164G/L320H/P321A): as the sequence (O48604 whole entry R146V/R147D/R148G/A164G/L320Q) above, with Q320H, P321A counted along it
T12 sequence (O48604 whole entry R146V/R147D/R148G/A164G/L320N): as the sequence (O48604 whole entry R146V/R147D/R148G/A164G/L320Q) above, with Q320N counted along it
T3 sequence (O48604 whole entry R146V/R147D/R148G/A164G/L334E): as the sequence (O48604 whole entry R146V/R147D/R148G/A164G/L320Q) above, with Q320L, L334E counted along it
T7 sequence (O48604 whole entry R146V/R147D/R148G/A164G/G407C): as the sequence (O48604 whole entry R146V/R147D/R148G/A164G/L320Q) above, with Q320L, G407C counted along it
T6 sequence (O48604 whole entry R146V/R147D/R148G/A164G/V212I/P321R/L334E/L353M): as the sequence (O48604 whole entry R146V/R147D/R148G/A164G/L320Q) above, with V212I, Q320L, P321R, L334E, L353M counted along it
T8 sequence (P93836 whole entry M335H/P336A/E363Q): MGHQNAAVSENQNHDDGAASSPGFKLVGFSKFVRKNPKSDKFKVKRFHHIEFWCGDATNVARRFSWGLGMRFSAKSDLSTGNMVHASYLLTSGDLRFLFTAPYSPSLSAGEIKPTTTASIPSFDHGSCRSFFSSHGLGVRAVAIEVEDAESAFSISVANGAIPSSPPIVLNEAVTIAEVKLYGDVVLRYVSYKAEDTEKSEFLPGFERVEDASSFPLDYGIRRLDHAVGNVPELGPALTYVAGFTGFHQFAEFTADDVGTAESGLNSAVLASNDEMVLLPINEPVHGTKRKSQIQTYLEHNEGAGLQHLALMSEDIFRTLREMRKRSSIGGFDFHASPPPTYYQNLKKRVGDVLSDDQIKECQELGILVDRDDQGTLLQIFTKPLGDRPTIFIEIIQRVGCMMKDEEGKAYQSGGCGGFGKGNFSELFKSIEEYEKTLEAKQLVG
T1 sequence (O48604 whole entry R146V/R147D/R148G/A164G): as the sequence (O48604 whole entry R146V/R147D/R148G/A164G/L320Q) above, with Q320L counted along it
T5 sequence (O48604 whole entry R146V/R147D/R148G/A164G/V212I/P321R/L353M): as the sequence (O48604 whole entry R146V/R147D/R148G/A164G/L320Q) above, with V212I, Q320L, P321R, L353M counted along it
T9 sequence (O48604 whole entry R146V/R147D/R148G/A164G/L320N/P321R/L353M): as the sequence (O48604 whole entry R146V/R147D/R148G/A164G/L320Q) above, with Q320N, P321R, L353M counted along it

## CC1(C)c2cccnc2C(O)=C(c2ccc(Br)cc2C(F)(F)F)S1(=O)=O [Inhibitor 5, 7-[4-bromo-2-(trifluoromethyl)phenyl]-5,5-dimethyl-6,6-dioxo-thiopyrano[4,3-b]pyridin-8-ol]
Hordeum HPPD (SEQ ID: 2)
  Normalized tolerance index TI: 1
[1]
  Normalized tolerance index TI: 6.6
[2]
  Normalized tolerance index TI: 2.1
[3]
  Normalized tolerance index TI: 2.9
[4]
  Normalized tolerance index TI: 3.3
[5]
  Normalized tolerance index TI: 3.4
[6]
  Normalized tolerance index TI: 4.3
[7]
  Normalized tolerance index TI: 0.2
[8]
  Normalized tolerance index TI: 3.2
[9]
  Normalized tolerance index TI: 1
[10]
  Normalized tolerance index TI: 1.1
[11]
  Normalized tolerance index TI: 2.4
